Data: US6841519B1, “Isoxazoline derivatives and herbicides containing the same as the active ingredient” (Kumiai Chemical Industry Co., Ltd., priority 1999, dated 2005)
Blank lines part the entries; values can stand above or below the molecule they belong to.

Key:
[1] = tested on: Scirpus juncoides Roxb. subsp. juncoides Roxb. (Sc); assay: Test for herbicidal effect during breeding period by paddy field water treatment (Test Example 5), Sc; assay type: in vivo; conditions: paddy field water treatment at 2-leaf stage, 25 g/10 a active ingredient, 30th day
Experimental: (§1) [table] <Test Example 5> Test For Herbicidal Effect During Breeding Period By Paddy Field Water Treatment A paddy field soil was filled in a plastic pot of 100 cm^2 and subjected to puddling. Seeds of Monochoria vaginalis Presl (Mo) and Scirpus juncoides Roxb. subsp. juncoides Roxb. (Sc) were sowed; water was filled in a depth of 3 cm; and breeding was made. When Mo reached a 1-leaf stage and Sc reached a 2-leaf stage, wettable powders produced in accordance with the Formulation 1 were diluted with water and dropped on the water surface. […] Then, breeding was made in a greenhouse. At the 30th day from the treatment, the herbicidal effect of each wettable powder was examined in accordance with the standard shown in Table 40.

[2] = tested on: Monochoria vaginalis Presl (Mo); assay: Test for herbicidal effect during breeding period by paddy field water treatment (Test Example 5), Mo; assay type: in vivo; conditions: paddy field water treatment at 1-leaf stage, 25 g/10 a active ingredient, 30th day
Experimental: as §1

[3] = tested on: Echinochloa crus-galli (L.) Beauv. var. crusgalli (Ec); assay: Test for herbicidal effect by upland foliage treatment (Test Example 3); assay type: in vivo; conditions: 100 g/10 a active ingredient, examined at 14th day
Summary of the method: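 Potted upland-soil Ec seedlings grown 2 weeks in greenhouse, then foliage-sprayed with water-diluted wettable powder at 100 L per 10 ares, giving 100 g active ingredient per 10 ares. Herbicidal effect scored on a graded standard 14 days after treatment.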

[4] = tested on: Setaria viridis (L.) Beauv. (Se); assay: Test for herbicidal effect by upland field soil treatment (Test Example 2), Se; assay type: in vivo
Summary of the method: (§2)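 Echinochloa crus-galli and Setaria viridis were sown in upland field soil and covered, then the soil surface was sprayed with water-diluted wettable powder at 100 g active ingredient per 10 ares (100 liters per 10 ares). Plants were grown in a greenhouse and scored on a standard scale on day 21.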

[5] = tested on: Echinochloa crus-galli (L.) Beauv. var. crusgall (Ec); assay: Test for herbicidal effect by upland field soil treatment (Test Example 2), Ec; assay type: in vivo
Summary of the method: as §2

[6] = tested on: Echinochloa oryzicola Vasing. (Eo); assay: Test for herbicidal effect by paddy field soil treatment (Test Example 1); assay type: in vivo; conditions: application amount (active ingredient) 100 g/10 a, examined at the 21st day from the treatment, index per Table 40
Summary of the method: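 Eo seeds sown in puddled paddy soil under 3 cm water; next day a water-diluted wettable powder was dropped onto the water surface at 100 g active ingredient per 10 ares. Herbicidal effect scored on a standard scale 21 days after treatment, greenhouse-grown.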

[7] = tested on: Polygonum lapathifolium L. subsp. nodosum (Pers.) Kitam. (Po); assay: Test for herbicidal effect to broadleaf weeds by upland field soil treatment (Test Example 6), Po; assay type: in vivo; conditions: 25 g/10 a active ingredient, 30th day
Experimental: (§3) Test for herbicidal effect to broadleaf weeds by upland field soil treatment
(§4) An upland field soil was filled in a plastic pot of 80 cm^2. Seeds of Polygonum lapathifolium L. subsp. nodosum (Pers.) Kitam. (Po) and Chenopodium album L. (Ch) were sowed, followed by covering with the same soil. Wettable powders produced in accordance with the Formulation 1 were diluted with water and sprayed uniformly on the soil surface using a small sprayer, […] Then, breeding was made in a greenhouse. At the 30th day from the treatment, the herbicidal effect of each wettable powder was examined in accordance with the standard shown in Table 40.

[8] = tested on: Chenopodium album L. (Ch); assay: Test for herbicidal effect to broadleaf weeds by upland field soil treatment (Test Example 6), Ch; assay type: in vivo; conditions: 25 g/10 a active ingredient, 30th day
Experimental: as §3, §4

[9] = application amount (active ingredient) 100 g/10 a, examined at the 21st day from the treatment, index per Table 40
[10] = 100 g/10 a active ingredient, examined at 21st day

Structure (SMILES): CCc1ccccc1CS(=O)(=O)C1=NOC(C)(CCl)C1 (stereo not shown) [Comparative compound 1, reference compound]
Herbicidal effect to Sc [1]: 1 (A herbicidal effect or phytotoxicity of 10% to less than 30%)
Herbicidal effect to Mo [2]: 1 (A herbicidal effect or phytotoxicity of 10% to less than 30%)

Structure (SMILES): CC1(CCl)CC(S(=O)(=O)Cc2ccccc2F)=NO1 (stereo not shown) [Comparative compound 2, reference compound]
Herbicidal effect to Sc [1]: 1 (A herbicidal effect or phytotoxicity of 10% to less than 30%)
Herbicidal effect to Mo [2]: 1 (A herbicidal effect or phytotoxicity of 10% to less than 30%)

Structure (SMILES): CCc1ccccc1CS(=O)(=O)C1=NOC(C)(C)C1 [Compound 1-8]
Herbicidal effect to Ec [3]: 5 (A herbicidal effect or phytotoxicity of 90% or more)
Herbicidal effect to Sc [1]: 4 (A herbicidal effect or phytotoxicity of 70% to less than 90%)
Herbicidal effect to Mo [2]: 5 (A herbicidal effect or phytotoxicity of 90% or more)
Herbicidal effect to Se [4, 9]: 5 (A herbicidal effect or phytotoxicity of 90% or more)
Herbicidal effect to Ec [5, 9]: 5 (A herbicidal effect or phytotoxicity of 90% or more)
Herbicidal effect to Eo [6]: 5 (A herbicidal effect or phytotoxicity of 90% or more)

melting point: 77 to 80 °C
Structure (SMILES): CC1(C)CC(SCc2c(F)cccc2F)=NO1 [Compound 1-38, 3-(2,6-difluorobenzylthio)-5,5-dimethyl-2-isoxazoline]
Herbicidal effect to Se [4, 9]: 4 (A herbicidal effect or phytotoxicity of 70% to less than 90%)
Herbicidal effect to Ec [5, 9]: 4 (A herbicidal effect or phytotoxicity of 70% to less than 90%)
Herbicidal effect to Eo [6]: 5 (A herbicidal effect or phytotoxicity of 90% or more)

Structure (SMILES): CC1(C)CC(S(=O)(=O)Cc2c(F)cccc2F)=NO1 [Compound 1-39, 3-(2,6-difluorobenzylsulfonyl)-5,5-dimethyl-2-isoxazoline]
Herbicidal effect to Ec [3]: 5 (A herbicidal effect or phytotoxicity of 90% or more)
Herbicidal effect to Po [7]: 4 (A herbicidal effect or phytotoxicity of 70% to less than 90%)
Herbicidal effect to Ch [8]: 5 (A herbicidal effect or phytotoxicity of 90% or more)
Herbicidal effect to Sc [1]: 5 (A herbicidal effect or phytotoxicity of 90% or more)
Herbicidal effect to Mo [2]: 5 (A herbicidal effect or phytotoxicity of 90% or more)
Herbicidal effect to Se [4, 9]: 5 (A herbicidal effect or phytotoxicity of 90% or more)
Herbicidal effect to Ec [5, 9]: 5 (A herbicidal effect or phytotoxicity of 90% or more)
Herbicidal effect to Eo [6]: 5 (A herbicidal effect or phytotoxicity of 90% or more)

Structure (SMILES): CC(C)Oc1ccccc1CS(=O)(=O)C1=NOC(C)(C)C1 [Compound 1-49]
Herbicidal effect to Ec [3]: 5 (A herbicidal effect or phytotoxicity of 90% or more)
Herbicidal effect to Sc [1]: 5 (A herbicidal effect or phytotoxicity of 90% or more)
Herbicidal effect to Mo [2]: 5 (A herbicidal effect or phytotoxicity of 90% or more)
Herbicidal effect to Se [4, 9]: 5 (A herbicidal effect or phytotoxicity of 90% or more)
Herbicidal effect to Ec [5, 9]: 5 (A herbicidal effect or phytotoxicity of 90% or more)
Herbicidal effect to Eo [6]: 5 (A herbicidal effect or phytotoxicity of 90% or more)

Structure (SMILES): CC1(C)CC(S(=O)(=O)Cc2ccccc2OC(F)(F)F)=NO1 [Compound 1-58]
Herbicidal effect to Ec [3]: 5 (A herbicidal effect or phytotoxicity of 90% or more)
Herbicidal effect to Sc [1]: 5 (A herbicidal effect or phytotoxicity of 90% or more)
Herbicidal effect to Mo [2]: 4 (A herbicidal effect or phytotoxicity of 70% to less than 90%)
Herbicidal effect to Se [4, 9]: 5 (A herbicidal effect or phytotoxicity of 90% or more)
Herbicidal effect to Ec [5, 9]: 5 (A herbicidal effect or phytotoxicity of 90% or more)
Herbicidal effect to Eo [6]: 5 (A herbicidal effect or phytotoxicity of 90% or more)

Structure (SMILES): CC1(C)CC(S(=O)(=O)Cc2ccccc2C(F)(F)F)=NO1 [Compound 1-157]
Herbicidal effect to Ec [3]: 5 (A herbicidal effect or phytotoxicity of 90% or more)
Herbicidal effect to Sc [1]: 5 (A herbicidal effect or phytotoxicity of 90% or more)
Herbicidal effect to Mo [2]: 5 (A herbicidal effect or phytotoxicity of 90% or more)
Herbicidal effect to Se [4, 9]: 5 (A herbicidal effect or phytotoxicity of 90% or more)
Herbicidal effect to Ec [5, 9]: 5 (A herbicidal effect or phytotoxicity of 90% or more)
Herbicidal effect to Eo [6]: 5 (A herbicidal effect or phytotoxicity of 90% or more)

Structure (SMILES): O=S(=O)(Cc1c(F)cccc1F)C1=NOC2(CCC2)C1 [Compound 1-382]
Herbicidal effect to Sc [1]: 4 (A herbicidal effect or phytotoxicity of 70% to less than 90%)
Herbicidal effect to Mo [2]: 5 (A herbicidal effect or phytotoxicity of 90% or more)
Herbicidal effect to Se [4, 9]: 5 (A herbicidal effect or phytotoxicity of 90% or more)
Herbicidal effect to Ec [5, 9]: 5 (A herbicidal effect or phytotoxicity of 90% or more)
Herbicidal effect to Eo [6]: 5 (A herbicidal effect or phytotoxicity of 90% or more)

Structure (SMILES): Cc1cc(C)c(C)c(CS(=O)(=O)C2=NOC(C)(C)C2)c1C [Compound 1-547]
Herbicidal effect to Ec [3]: 5 (A herbicidal effect or phytotoxicity of 90% or more)
Herbicidal effect to Sc [1]: 5 (A herbicidal effect or phytotoxicity of 90% or more)
Herbicidal effect to Mo [2]: 5 (A herbicidal effect or phytotoxicity of 90% or more)
Herbicidal effect to Se [4, 10]: 5 (A herbicidal effect or phytotoxicity of 90% or more)
Herbicidal effect to Ec [5, 10]: 5 (A herbicidal effect or phytotoxicity of 90% or more)
Herbicidal effect to Eo [6]: 5 (A herbicidal effect or phytotoxicity of 90% or more)

Structure (SMILES): CC1(C)CC(S(=O)(=O)Cc2c(Cl)cccc2OCC(F)(F)F)=NO1 [Compound 1-567]
Herbicidal effect to Ec [3]: 4 (A herbicidal effect or phytotoxicity of 70% to less than 90%)
Herbicidal effect to Sc [1]: 5 (A herbicidal effect or phytotoxicity of 90% or more)
Herbicidal effect to Mo [2]: 5 (A herbicidal effect or phytotoxicity of 90% or more)
Herbicidal effect to Se [4, 10]: 5 (A herbicidal effect or phytotoxicity of 90% or more)
Herbicidal effect to Ec [5, 10]: 5 (A herbicidal effect or phytotoxicity of 90% or more)
Herbicidal effect to Eo [6]: 5 (A herbicidal effect or phytotoxicity of 90% or more)

Structure (SMILES): CC1(C)CC(S(=O)(=O)Cc2c(F)cccc2OC(F)F)=NO1 [Compound 1-573]
Herbicidal effect to Ec [3]: 5 (A herbicidal effect or phytotoxicity of 90% or more)
Herbicidal effect to Po [7]: 5 (A herbicidal effect or phytotoxicity of 90% or more)
Herbicidal effect to Ch [8]: 5 (A herbicidal effect or phytotoxicity of 90% or more)
Herbicidal effect to Se [4, 10]: 5 (A herbicidal effect or phytotoxicity of 90% or more)
Herbicidal effect to Ec [5, 10]: 5 (A herbicidal effect or phytotoxicity of 90% or more)
Herbicidal effect to Eo [6]: 5 (A herbicidal effect or phytotoxicity of 90% or more)

melting point: 82 to 84 °C
Structure (SMILES): CC1(C)CC(S(C)(=O)=O)=NO1 [Compound 2-1, 3-methylsulfonyl-5,5-dimethyl-2-isoxazoline]
